Holding throughout (format): functional, cell-based
The subject of test [1] is SMMC-7721. Kind of test: Cytotoxicity against human SMMC7721 cells after 48 hrs by MTT assay. As to conditions: SMMC-7721, 48 h. For orientation: Formazan colour is commonly taken as a measure of viable cells.
Test [2] concerns SW480. Kind of test: Cytotoxicity against human SW480 cells after 48 hrs by MTT assay. The settings on record: SW480, 48 h.
Test [3] relates to MCF7. Kind of test: Cytotoxicity against human MCF7 cells after 48 hrs by MTT assay. The settings on record: MCF7, 48 h.
The test system of test [4] is A549. Kind of test: Cytotoxicity against human A549 cells after 48 hrs by MTT assay. As to conditions: A549, 48 h.
The test system of test [5] is HL-60. Kind of test: Cytotoxicity against human HL60 cells after 48 hrs by MTT assay. As to conditions: HL-60, 48 h.

SMILES strings stand for the structures. Where only a bound is given, the exact number is not on record here.

As a reminder, the IC50 is the concentration at which inhibition is half-maximal. High values mean lower potency, low ones higher potency. With `CCc1n(Cc2c(-c3ccccc3)oc3ccccc23)cc[n+]1CC(=O)c1ccc(F)cc1`, the IC50 in test [1] was found to be 8.13 µM; in test [2] it was 11.3 µM; in test [3], 5.03 µM; in test [4], 14.6 µM; in test [5], 990 nM.
In the case of `c1ccc(-c2oc3ccccc3c2Cn2cncn2)cc1`, the half-inhibitory concentration (IC50) in test [1] is more than 40 µM; in test [2] it was more than 40 µM; in test [3], more than 40 µM; in test [4] it was more than 40 µM; in test [5], more than 40000 nM.
On to `O=C(C[n+]1ccn(Cc2c(-c3ccccc3)oc3ccccc23)c1)c1ccccc1`, for which the IC50 in test [1] was 9.83 µM; in test [2], 15.5 µM; in test [3] it was 15.5 µM; in test [4], more than 40 µM; in test [5], 2490 nM.
Consider `c1ccc(C[n+]2cnn(Cc3c(-c4ccccc4)oc4ccccc34)c2)cc1`, for which the IC50 in test [1] was more than 40 µM; in test [2], more than 40 µM; in test [3], more than 40 µM; in test [4], more than 40 µM; in test [5] it was more than 40000 nM.
As to `Brc1ccccc1C[n+]1ccn(Cc2c(-c3ccccc3)oc3ccccc23)c1`, the IC50 in test [1] was 6.61 µM; in test [2], 10.3 µM; in test [3], 5.58 µM; in test [4] it was 11.2 µM; in test [5], 1860 nM.
For the molecule `CCc1n(Cc2c(-c3ccccc3)oc3ccccc23)cc[n+]1CC(=O)c1ccc(OC)cc1`, the IC50 amounted to 11.8 µM in test [1]; 5.69 µM in test [2]; 3.17 µM in test [3]; 12.9 µM in test [4]; 580 nM in test [5].
For the molecule `c1ccc(-c2oc3ccccc3c2Cn2cnc3ccccc32)cc1`, the 50% inhibitory concentration (IC50) in test [1] was more than 40 µM; in test [2] it was more than 40 µM; in test [3], more than 40 µM; in test [4], more than 40 µM; in test [5], more than 40000 nM.
On to `O=C(c1ccccc1)C(c1ccccc1)[n+]1cnn(Cc2c(-c3ccccc3)oc3ccccc23)c1` (stereo not given), for which the IC50 amounted to 16.1 µM in test [1]; 20.9 µM in test [2]; 20.7 µM in test [3]; 16.8 µM in test [4]; 15900 nM in test [5].
With `O=C(C[n+]1ccn(Cc2c(-c3ccccc3)oc3ccccc23)c1)c1ccc(O)cc1`, the concentration for half-maximal inhibition (IC50) in test [1] is more than 40 µM; in test [2] it was more than 40 µM; in test [3], more than 40 µM; in test [4], more than 40 µM; in test [5], more than 40000 nM.
Take `COc1ccc(C(=O)C[n+]2cnn(Cc3c(-c4ccccc4)oc4ccccc34)c2)cc1`: the IC50 in test [1] turned out to be 5.76 µM; in test [2] it was 17.2 µM; in test [3] it was 14.9 µM; in test [4], 13.7 µM; in test [5] it was 3220 nM.
In the case of `CCc1n(Cc2c(-c3ccccc3)oc3ccccc23)cc[n+]1CC(=O)c1ccccc1`, the IC50 in test [1] was 5.01 µM; in test [2], 11.9 µM; in test [3], 7.53 µM; in test [4], 12.5 µM; in test [5] it was 2090 nM.
For the molecule `O=C(C[n+]1ccn(Cc2c(-c3ccccc3)oc3ccccc23)c1)c1ccc(F)cc1`, the IC50 in test [1] is 13.4 µM; in test [2] it was 15.5 µM; in test [3] it was 14.6 µM; in test [4] it was more than 40 µM; in test [5], 2980 nM.
With `c1ccc(-c2oc3ccccc3c2Cn2ccnc2)cc1`, the IC50 is more than 40 µM in test [1]; more than 40 µM in test [2]; more than 40 µM in test [3]; more than 40 µM in test [4]; more than 40000 nM in test [5].
On to `Brc1ccccc1C[n+]1cnn(Cc2c(-c3ccccc3)oc3ccccc23)c1`, for which the half-maximal inhibitory concentration (IC50) stood at 21.9 µM in test [1]; 18.9 µM in test [2]; 16.3 µM in test [3]; 33.1 µM in test [4]; 9000 nM in test [5].
As to `O=C(C[n+]1ccn(Cc2c(-c3ccccc3)oc3ccccc23)c1)c1ccc(Br)cc1`, the half-inhibitory concentration (IC50) in test [1] stood at 17.8 µM; in test [2] it was 3.36 µM; in test [3] it was 3.65 µM; in test [4], 13.8 µM; in test [5] it was 1570 nM.

These data come from ChEMBL document CHEMBL2406955, “Synthesis and cytotoxic activities of novel hybrid 2-phenyl-3-alkylbenzofuran and imidazole/triazole compounds” (Bioorg Med Chem Lett, 2013).
